This is an account of results in patent publication US7241893B2, “Thiazolinone 2-substituted quinolines” (Hoffman-La Roche Inc., priority 2004, dated 2007).

This test deals with T1, recombinant human CDK1/Cyclin B complex (Homo sapiens, UniProt P06493).
T1 construct: made in house; host or cells: High Five insect cells (baculovirus) for CDK1/GST-cyclin B; E. coli M15 for the Rb substrate
The experiment in a line: CDK1/Cyclin B kinase assay (FlashPlate or HTRF). It is filed as biochemical. Particulars: Rb protein substrate, Ki=IC50/(1+[S]/Km). How it is done:
To determine inhibition of CDK1 activity, either FlashPlate™ (NEN™-Life Science Products) assay or HTRF assay was performed. Both types of kinase assays were carried out using recombinant human CDK1/Cyclin B complex. GST-cyclinB (GST-cycB) and CDK1 cDNA clones in baculovirus vectors were provided by Dr. W. Harper at the Baylor College of Medicine, Houston, Tex. Proteins were co-expressed in High Five™ insect cells and the complex was purified on glutathione Sepharose resin (Pharmacia, Piscataway, N.J.) as previously described (Harper, J. W. et al. Cell 1993, 75, 805–816). A 6x-Histidine tagged truncated form of retinoblastoma (Rb) protein (amino acid 386–928) was used as the substrate for the CDK1/Cyclin B assay (the expression plasmid was provided by Dr. Veronica Sullivan, Department of Molecular Virology, Roche Research Centre, Welwyn Garden City, United Kingdom). The Rb protein is a natural substrate for phosphorylation by CDK1 (see Herwig and Strauss Eur. J. Biochem. Vol. 246 (1997) pp. 581–601 and the references cited therein). The expression of the 62 Kd protein was under the control of an IPTG inducible promoter in an M15 E. coli strain. Cells were lysed by sonication and purification was carried out by binding lysates at pH 8.0 to a Ni-chelated agarose column pretreated with 1 mM imidazole. The resin was then washed several times with incrementally decreasing pH buffers to pH 6.0, and eluted with 500 mM imidazole. Eluted protein was dialysed against 20 mM HEPES pH 7.5, 30% glycerol, 200 mM NaCl, and 1 mM DTT. Purified Rb fusion protein stocks were quantitated for protein concentration, aliquoted, and stored at −70° C.
For the FlashPlate kinase assay, 96-well FlashPlates were coated with Rb protein at 10 μg/ml, using 100 μl per well. Plates were incubated at 4° C. overnight or at room temperature for 3 hours on a shaker. To control for nonspecific phosphorylation, one row of wells was coated with 100 μl/well coating buffer (20 mM HEPES, 0.2 M NaCl). Plates were then washed twice with wash buffer (0.01% Tween 20 in phosphate-buffered saline). Compounds to be tested (“test compounds”) were added to the wells at 5× final concentration. Reactions were initiated by immediate addition of 40 μl reaction mix (25 mM HEPES, 20 mM MgCl2, 0.002% Tween 20, 2 mM DTT, 1 [M ATP, 4 nM 33P-ATP) and a sufficient amount of enzyme to give counts that were at least 10-fold above background. Plates were incubated at room temperature on a shaker for 30 minutes. Plates were washed four times with the wash buffer, sealed, and counted on the TopCount scintillation counter (Packard Instrument Co., Downers Grove, Ill.]. The percent inhibition of Rb phosphorylation, which is a measure of the inhibition of CDK activity, was determined according to the following formula:
[formula] where “test compound” refers to the average counts per minute of the test duplicates, “nonspecific” refers to the average counts per minute when no CDK1/Cyclin B, etc., was added, and “total” refers to the average counts per minute when no compound was added. […] The value of the inhibitor constant Ki is calculated by the following: Ki=IC50/(1+[S]/Km), where [S] is the ATP concentration and Km is Michaelis constant.
The Homogeneous Time Resolved Fluorescence (HTRF) kinase assay was carried out in 96-well polypropylene plates (BD Biosciences, Bedford, Mass.). […]
A general note: In TR-FRET formats the signal depends on donor and acceptor labels being close together.

T1 sequence (P06493 whole entry): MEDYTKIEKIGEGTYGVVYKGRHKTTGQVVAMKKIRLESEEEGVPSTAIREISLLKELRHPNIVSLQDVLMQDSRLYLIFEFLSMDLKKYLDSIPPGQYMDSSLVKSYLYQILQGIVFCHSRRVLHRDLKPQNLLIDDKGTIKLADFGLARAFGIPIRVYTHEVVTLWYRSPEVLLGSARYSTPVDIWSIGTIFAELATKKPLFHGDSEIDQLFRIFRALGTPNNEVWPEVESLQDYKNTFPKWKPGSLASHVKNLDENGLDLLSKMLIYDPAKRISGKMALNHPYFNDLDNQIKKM
T1 sequence (P14635 whole entry partner): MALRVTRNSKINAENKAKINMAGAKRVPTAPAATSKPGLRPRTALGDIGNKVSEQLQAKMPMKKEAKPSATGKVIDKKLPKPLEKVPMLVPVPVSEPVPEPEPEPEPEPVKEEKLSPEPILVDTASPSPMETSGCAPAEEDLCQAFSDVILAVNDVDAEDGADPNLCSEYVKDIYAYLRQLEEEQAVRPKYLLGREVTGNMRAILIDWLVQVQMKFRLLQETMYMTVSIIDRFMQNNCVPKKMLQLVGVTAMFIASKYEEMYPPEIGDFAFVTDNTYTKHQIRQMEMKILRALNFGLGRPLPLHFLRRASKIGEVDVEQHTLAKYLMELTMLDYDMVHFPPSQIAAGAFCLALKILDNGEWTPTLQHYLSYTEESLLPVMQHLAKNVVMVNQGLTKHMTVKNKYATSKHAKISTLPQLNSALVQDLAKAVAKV

Regarding `CCOc1cc(N)nc2ccc(/C=C3\SC(N)=NC3=O)cc12` [Example 3, 2-Amino-5-(2-amino-4-ethoxy-quinolin-6-ylmethylene)-thiazol-4-one], the Ki – broadly, the equilibrium dissociation constant of an inhibitor or competing ligand from its target – is 30 nM.

On to `CCOc1cc(NC(C)=O)nc2ccc(/C=C3\SC(N)=NC3=O)cc12` [Example 7, N-(6-{2-Amino-4-oxo-4H-thiazol-5-ylidenemethyl}-4-ethoxy-quinolin-2-yl)-acetamide], for which the Ki worked out at 97 nM. On to `CCOc1cc(NC(C)=O)nc2ccc(/C=C3\SC(NCC4COCCO4)=NC3=O)cc12` (centres unmarked) [Example 9], for which the Ki worked out at 3240 nM. The result for `Nc1ccc2cc(/C=C3\SC(N[C@@H]4C[C@H]4c4ccccc4)=NC3=O)ccc2n1` [Example 1, 5-[1-(2-Amino-quinolin-6-yl)-meth-(Z)-ylidene]-2-((1R,2S)-2-phenyl-cyclopropylamino)-thiazol-4-one; compound with trifluoro-acetic acid] reads 23 nM; that for `CCOc1cc(NC(C)=O)nc2ccc(/C=C3\SC(NC4CC4)=NC3=O)cc12` [Example 5, N-[6-(2-Cyclopropylamino-4-oxo-4H-thiazol-5-ylidenemethyl)-4-ethoxy-quinolin-2-yl]-acetamide], 85 nM.
